This is an account of results in ChEMBL document CHEMBL1130738, “Rational design of boropeptide thrombin inhibitors: beta, beta-dialkyl-phenethylglycine P2 analogs of DuP 714 with greater selectivity over complement factor I and an improved safety profile” (Bioorg Med Chem Lett, 1998).

SMILES strings stand for the structures. The source made the active and inactive calls. The rule behind the calls is not given here.

Test [1] in a line: Inhibition of Coagulation factor I.
Test [2] is described as follows: Selectivity ratio for binding to factor I (IC50) and thrombin (Ki).
In test [3] the target is Thrombin and coagulation factor X (Homo sapiens) (UniProt P00734+P00742). As to the kind of experiment: Selectivity ratio for binding to factor Xa (Ki) and thrombin (Ki). The class given is protein assay.
Sequence of Thrombin and coagulation factor X (Homo sapiens) (P00742 whole entry, looked up, other chains not shown): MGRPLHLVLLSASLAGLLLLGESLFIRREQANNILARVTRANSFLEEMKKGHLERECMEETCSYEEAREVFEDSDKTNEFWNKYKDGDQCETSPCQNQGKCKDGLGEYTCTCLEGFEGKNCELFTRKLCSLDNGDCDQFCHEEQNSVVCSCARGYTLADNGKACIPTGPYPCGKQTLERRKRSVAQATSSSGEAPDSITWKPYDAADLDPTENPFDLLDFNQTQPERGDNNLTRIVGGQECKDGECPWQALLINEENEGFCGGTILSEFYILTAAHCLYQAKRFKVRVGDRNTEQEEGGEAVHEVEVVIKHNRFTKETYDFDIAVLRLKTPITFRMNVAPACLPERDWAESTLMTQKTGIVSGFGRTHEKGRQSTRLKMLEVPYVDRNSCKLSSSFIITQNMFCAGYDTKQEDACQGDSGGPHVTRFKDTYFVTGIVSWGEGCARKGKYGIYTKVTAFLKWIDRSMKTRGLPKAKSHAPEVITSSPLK
In the next test the target is Coagulation factor X (Homo sapiens, UniProt P00742). In words: Binding affinity towards coagulation factor Xa.
Sequence of Coagulation factor X (P00742 41-179 limits assumed): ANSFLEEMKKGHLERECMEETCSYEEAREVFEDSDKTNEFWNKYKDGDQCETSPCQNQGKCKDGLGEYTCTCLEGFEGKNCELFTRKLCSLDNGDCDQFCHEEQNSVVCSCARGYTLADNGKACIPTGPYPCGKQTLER
Sequence of Coagulation factor X (P00742 235-488 limits assumed): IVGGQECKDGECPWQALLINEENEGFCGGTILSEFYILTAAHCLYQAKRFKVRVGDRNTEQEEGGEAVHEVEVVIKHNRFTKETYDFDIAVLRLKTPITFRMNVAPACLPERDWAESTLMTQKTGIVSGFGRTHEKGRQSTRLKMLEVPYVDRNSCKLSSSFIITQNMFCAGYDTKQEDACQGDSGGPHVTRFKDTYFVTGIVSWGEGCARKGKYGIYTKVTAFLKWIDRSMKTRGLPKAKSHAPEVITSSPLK
The target in a further test is Prothrombin (Homo sapiens, UniProt P00734). In words: Binding affinity towards thrombin was tested.
Test [4] relates to Rattus norvegicus. In words: Effect of factor I selectivity on hypotension was evaluated in rats after administration intravenously at a dose(bolus) of 20umol/Kg, activity expressed as drop in blood pressure; No effect. The class given is functional, organism-based.
The test system of test [5] is Rattus norvegicus. As to the kind of experiment: Alanine transaminase level was measured in rats after administration intravenously at a dose(bolus) of 20 umol/kg. The class given is functional, organism-based. The arrangement: unit not given here.
The test system of test [6] is Rattus norvegicus. In words: Effect of factor I selectivity on hypotension was evaluated in rats after administration intravenously at a dose(bolus) of 2 umol/kg. Type of test: functional.
The test system of test [7] is Rattus norvegicus. In words: Effect of factor I selectivity on hypotension was evaluated in rats after administration intravenously at a dose(bolus) of 20umol/Kg, activity expressed as drop in blood pressure. The class given is functional.

On to `Cc1cc(C)cc(CCN(CC(=O)NC(CCC/N=C/N)B(O)O)C(=O)CCc2ccccc2)c1` (stereo unspecified), for which 400 nM corresponded to half-maximal inhibition in test [1] (IC50). Moreover, the Ratio in test [2] turned out to be 1080; in test [3], 81.

With `N=CNCCCC(NC(=O)CN(CCc1ccccc1)C(=O)CCc1ccccc1)B(O)O` (stereo unspecified), the results for the Ki on Coagulation factor X and at Prothrombin were 22 nM and 0.89 nM, respectively.

As for `N=C(N)NCCCC(NC(=O)CN(CC1(c2ccccc2)CC1)C(=O)CCc1ccccc1)B(O)O` (stereo unspecified), in test [1], inhibition was half-maximal at 540 nM (IC50). In addition, the Ki on Coagulation factor X came out at 46 nM; on Prothrombin it was 0.06 nM. For the same molecule, the BP result with Rattus norvegicus [4] was “inactive”. In addition, the Level in the test with Rattus norvegicus [5] is 89. Moreover, the Ratio was determined as 9000 in test [2] and 767 in test [3].

`Cc1cc(C)cc(C(C)(C)CN(CC(=O)NC(CCCCN)B(O)O)C(=O)CCc2ccccc2)c1` (stereo unspecified) displayed a half-maximal inhibitory concentration (IC50) in test [1] of 2450 nM. The results for the inhibition constant (Ki) at Coagulation factor X and on Prothrombin were 810 nM and 0.41 nM, respectively. For the same molecule, in the test with Rattus norvegicus [5], the Level came to 78. Further, the Ratio in [2] was 5980; in [3] it was 1980.

Consider `N/C=N/CCCC(NC(=O)CN(CC1(c2ccccc2)CC1)C(=O)CCc1ccccc1)B(O)O` (stereo unspecified), for which the IC50 in test [1] came to 7700 nM. Besides, in the test with Rattus norvegicus [5], the Level is 66. Besides, the Ratio worked out at 9280 in test [2] and 361 in test [3].

`CC(=O)N[C@H](Cc1ccccc1)C(=O)N1CCC[C@H]1C(=O)N[C@@H](CCCN=C(N)N)B(O)O.Cl`: the IC50 in [1] amounted to 10 nM. The BP in the test on Rattus norvegicus [6] is listed as greater than 40 mmHg.

Consider `CC(C)(CN(CC(=O)NC(CCCNC(=N)N)B(O)O)C(=O)CCc1ccccc1)c1ccccc1` (stereo unspecified), for which the results for the Ki at Coagulation factor X and at Prothrombin were 99 nM and 0.06 nM, respectively.

For `CC(C)(CN(CC(=O)NC(CCCNC=N)B(O)O)C(=O)CCc1ccccc1)c1ccccc1` (stereo unspecified), the Ki on Coagulation factor X worked out at 80 nM; on Prothrombin, 1.2 nM.

`Cc1cc(C)cc(CCN(CC(=O)NC(CCCCN)B(O)O)C(=O)CCc2ccccc2)c1` (stereo unspecified) had an IC50 in test [1] of 170 nM. The results for the Ki on Coagulation factor X and on Prothrombin were 54 nM and 0.28 nM, respectively. For the same molecule, the figures for the Ratio in [2] and in test [3] were 607 and 193, respectively.

In [1], `N/C=N/CCCC(NC(=O)CN(CCc1ccccc1)C(=O)CCc1ccccc1)B(O)O` (stereo unspecified) registered an IC50 of 2730 nM. Moreover, in the test with Rattus norvegicus [5], the Level was 55. Also, the values for the Ratio in test [2] and in [3] were 3070 and 25, respectively.

The molecule `CC(C)(CN(CC(=O)NC(CCCN=C(N)N)B(O)O)C(=O)CCc1ccccc1)c1ccccc1` (stereo unspecified) showed an IC50 in test [1] of 130 nM. The molecule further returned a BP in the test on Rattus norvegicus [7] greater than 40 mmHg. The molecule also yielded a Level in the test with Rattus norvegicus [5] of 211. Further, the Ratio in [2] was determined as 2170; in [3] it was 1650.

Take `Cc1cc(C)cc(CCN(CC(=O)NC(CCCNC(=N)N)B(O)O)C(=O)CCc2ccccc2)c1` (stereo unspecified): the results for the Ki on Coagulation factor X and at Prothrombin were 15 nM and 0.58 nM, respectively.

In test [1], `NCCCCC(NC(=O)CN(CC1(c2ccccc2)CC1)C(=O)CCc1ccccc1)B(O)O` (stereo unspecified) displayed a half-maximal inhibitory concentration (IC50) of 4300 nM. Moreover, the results for the Ki at Coagulation factor X and at Prothrombin were 438 nM and 0.43 nM, respectively. In the test on Rattus norvegicus [5], this molecule had a Level of 60. In addition, the Ratio in [2] came out at 10000; in test [3], 1020.

In the case of `N=CNCCCC(NC(=O)CN(CC1(c2ccccc2)CC1)C(=O)CCc1ccccc1)B(O)O` (stereo unspecified), the inhibition constant Ki on Coagulation factor X amounted to 300 nM; on Prothrombin, 0.83 nM.

In turn, `CC(C)(CN(CC(=O)NC(CCC/N=C/N)B(O)O)C(=O)CCc1ccccc1)c1ccccc1` (stereo unspecified) gave a half-inhibitory concentration (IC50) in test [1] of 6900 nM. The same molecule displayed a Level with Rattus norvegicus [5] of 70. Moreover, the Ratio in [2] is 5750; in test [3], 67.

For the molecule `N=CNCCCC(NC(=O)CN(CC1(c2ccccc2)CCCC1)C(=O)CCc1ccccc1)B(O)O` (stereo unspecified), the inhibition constant (Ki) is 630 nM at Coagulation factor X and 3 nM at Prothrombin.

Consider `CC(C)(CN(CC(=O)NC(CCCCN)B(O)O)C(=O)CCc1ccccc1)c1ccccc1` (stereo unspecified), for which half-maximal inhibition in [1] (IC50) was put at 1300 nM. Also, the Ki at Coagulation factor X is 320 nM; at Prothrombin, 0.36 nM. For the same molecule, the Level in the test on Rattus norvegicus [5] came out at 53. In addition, the figures for the Ratio in test [2] and in test [3] were 3610 and 889, respectively.

In test [1], `Cc1cc(C)cc(C(C)(C)CN(CC(=O)NC(CCCN=C(N)N)B(O)O)C(=O)CCc2ccccc2)c1` (stereo unspecified) returned an IC50 of 320 nM. Also, the inhibition constant (Ki) at Coagulation factor X amounted to 62 nM; at Prothrombin it was 0.3 nM. In addition, the Ratio in test [2] was determined as 1070; in test [3] it was 207.

Turning to `Cc1cc(C)cc(CCN(CC(=O)NC(CCCNC=N)B(O)O)C(=O)CCc2ccccc2)c1` (stereo unspecified), the Ki at Coagulation factor X is 30 nM; at Prothrombin it was 0.37 nM.

In test [1], `Cc1cc(C)cc(C(C)(C)CN(CC(=O)NC(CCC/N=C/N)B(O)O)C(=O)CCc2ccccc2)c1` (stereo unspecified) returned an IC50 of 2390 nM. Moreover, the Ki is 392 nM on Coagulation factor X and 0.53 nM at Prothrombin. The same molecule gave a Level in the test on Rattus norvegicus [5] of 70. For the same molecule, the Ratio in test [2] was determined as 4510; in [3] it was 740.

`Cc1cc(C)cc(CCN(CC(=O)NC(CCCN=C(N)N)B(O)O)C(=O)CCc2ccccc2)c1` (stereo unspecified) showed a 50% inhibitory concentration (IC50) in [1] of less than 40 nM. In addition, the Ratio was less than 69 in test [2] and 26 in test [3].

Take `NCCCCC(NC(=O)CN(CCc1ccccc1)C(=O)CCc1ccccc1)B(O)O` (stereo unspecified): half-maximal inhibition in test [1] (IC50) required 1500 nM. Further, the figures for the Ki on Coagulation factor X and on Prothrombin were 130 nM and 0.42 nM, respectively. The Level with Rattus norvegicus [5] came to 60. The Ratio was found to be 3570 in test [2] and 310 in [3].

`NCCCCC(NC(=O)CN(CC1(c2ccccc2)CCCC1)C(=O)CCc1ccccc1)B(O)O` (stereo unspecified) gave an IC50 in test [1] of 19000 nM. Moreover, the inhibition constant Ki on Coagulation factor X turned out to be 1390 nM; on Prothrombin it was 2.4 nM. This molecule also yielded a Level in the test on Rattus norvegicus [5] of 66. Further, the Ratio in test [2] was 7920; in [3], 579.

In test [1], `N/C=N/CCCC(NC(=O)CN(CC1(c2ccccc2)CCCC1)C(=O)CCc1ccccc1)B(O)O` (stereo unspecified) displayed an IC50 greater than 50000 nM. This molecule also showed a Level in the test with Rattus norvegicus [5] of 60. Also, the Ratio in test [2] is greater than 16700; in [3] it was 210.
